tested on: DLD-1 BRCA2−/− cells; experiment: Homologous recombination synthetic lethal inhibition of proliferation, DLD-1 BRCA2-/- (Cell Titre Glo 3D); type: cell-based; conditions: Homo sapiens, DLD-1, DLD-1 BRCA2 −/− cells; mean; read-out: POLQ PD Prolif Lumin BRCA2 −/− mean pIC50 (converted)
Outline: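 Wild-type DLD-1 serves as the control for non-specific toxicity, and BRCA2-null DLD-1 as the homologous-recombination-deficient line. Both grew with compound from 10 μM down to 0.51 nM, re-dosed after 6 days. Luminescent ATP content (CellTiter-Glo 3D) was read after 7 or 12 days, respectively, to give IC50 values.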

Question: With `CC1(Oc2ncnc3c2nc(-c2ccc(CC(N)=O)cc2Cl)n3Cc2cccnc2C(F)(F)F)CC1` [Example T37, 2-(3-chloro-4-(6-(1-methylcyclopropoxy)-9-((2-(trifluoromethyl)pyridin-3-yl)methyl)-9H-purin-8-yl)phenyl)acetamide] as the molecule, how does the IC50 read?
Answer: > 10000 nM

Question: With `CC1(Oc2ncnc3c2nc(-c2ccc(CC(N)=O)cc2Cl)n3Cc2ccc(C(F)(F)F)nc2)CC1` [Example T38, 2-(3-chloro-4-(6-(1-methylcyclopropoxy)-9-((6-(trifluoromethyl)pyridin-3-yl)methyl)-9H-purin-8-yl)phenyl)acetamide] as the molecule, how does the IC50 read?
Answer: 6310 nM

Question: For `CC1(Oc2ncnc3c2nc(-c2ccc(CC(N)=O)cc2Cl)n3Cc2cncc(C#N)c2)CC1` [Example T39, 2-(3-chloro-4-(9-((5-cyanopyridin-3-yl)methyl)-6-(1-methylcyclopropoxy)-9H-purin-8-yl)phenyl)acetamide], which IC50 is on record?
Answer: 6310 nM

Question: Which IC50 does the source give for `CC1(Oc2ncnc3c2nc(-c2ccc(CC(N)=O)cc2Cl)n3Cc2ccnc(C#N)c2)CC1` [Example T40, 2-(3-chloro-4-(9-((2-cyanopyridin-4-yl)methyl)-6-(1-methylcyclopropoxy)-9H-purin-8-yl)phenyl)acetamide] here?
Answer: 5010 nM

Question: For `CC1(Oc2ncnc3c2nc(-c2ccc(CC(N)=O)cc2Cl)n3Cc2cccc(F)c2)CC1` [Example T42, 2-(3-chloro-4-(9-(3-fluorobenzyl)-6-(1-methylcyclopropoxy)-9H-purin-8-yl)phenyl)acetamide], which IC50 is on record?
Answer: 158 nM

Question: How did the IC50 turn out when `CC1(Oc2ncnc3c2nc(-c2ccc(CC(N)=O)cc2Cl)n3Cc2ccc(F)cc2)CC1` [Example T43, 2-(3-chloro-4-(9-(4-fluorobenzyl)-6-(1-methylcyclopropoxy)-9H-purin-8-yl)phenyl)acetamide] was run?
Answer: 631 nM

Question: How did the IC50 turn out when `CC1(Oc2ncnc3c2nc(-c2ccc(OCCO)cc2Cl)n3Cc2cc(C(F)(F)F)ccn2)CC1` [Example T44, 2-(3-chloro-4-(6-(1-methylcyclopropoxy)-9-((4-(trifluoromethyl)pyridin-2-yl)methyl)-9H-purin-8-yl)phenoxy)ethan-1-ol] was run?
Answer: 251 nM

Question: `CC1(Oc2ncnc3c2nc(-c2ccc(CC(N)=O)cc2Cl)n3Cc2cccc(Cl)c2)CC1` [Example T45, 2-(3-chloro-4-(9-(3-chlorobenzyl)-6-(1-methylcyclopropoxy)-9H-purin-8-yl)phenyl)acetamide] was tested. Which IC50 did it give?
Answer: 50.1 nM

Question: `CC1(Oc2ncnc3c2nc(-c2ccc(CC(N)=O)cc2Cl)n3CCc2cccc(Br)n2)CC1` [Example T46, 2-(4-(9-(2-(6-bromopyridin-2-yl)ethyl)-6-(1-methylcyclopropoxy)-9H-purin-8-yl)-3-chlorophenyl)acetamide] was tested. Which IC50 did it give?
Answer: > 10000 nM

Question: Which IC50 does the source give for `Cc1ccnc(Cn2c(-c3ccc(OCC(F)F)cc3Cl)nc3c(OC4(C)CC4)ncnc32)c1` [Example T47, 8-(2-chloro-4-(2,2-difluoroethoxy)phenyl)-6-(1-methylcyclopropoxy)-9-((4-methylpyridin-2-yl)methyl)-9H-purine] here?
Answer: 200 nM

Question: Which IC50 does the source give for `CC1(Oc2ncnc3c2nc(-c2ccc(CC(N)=O)cc2Cl)n3Cc2ccccc2)CC1` [Example T48, 2-(4-(9-benzyl-6-(1-methylcyclopropoxy)-9H-purin-8-yl)-3-chlorophenyl)acetamide] here?
Answer: 200 nM

Question: `CNC(=O)COc1ccc(-c2nc3c(OC4(C)CC4)ncnc3n2Cc2cc(Cl)ccn2)c(Cl)c1` [Example T51, 2-(3-chloro-4-(9-((4-chloropyridin-2-yl)methyl)-6-(1-methylcyclopropoxy)-9H-purin-8-yl)phenoxy)-N-methylacetamide] was tested. Which IC50 did it give?
Answer: 158 nM

Question: How did the IC50 turn out when `CNC(=O)c1ccc(Cl)c(-c2nc3c(OC4(C)CC4)ncnc3n2Cc2cc(C)ccn2)c1` [Example T54, 4-chloro-N-methyl-3-(6-(1-methylcyclopropoxy)-9-((4-methylpyridin-2-yl)methyl)-9H-purin-8-yl)benzamide] was run?
Answer: > 10000 nM

Question: With `CNC(=O)c1cccc(-c2nc3c(OC4(C)CC4)ncnc3n2Cc2cc(C)ccn2)c1Cl` [Example T55, 2-chloro-N-methyl-3-(6-(1-methylcyclopropoxy)-9-((4-methylpyridin-2-yl)methyl)-9H-purin-8-yl)benzamide] as the molecule, how does the IC50 read?
Answer: 631 nM

Question: Which IC50 does the source give for `Cc1ccnc(Cn2c(-c3cc(CC(N)=O)ccc3Cl)nc3c(OC4(C)CC4)ncnc32)c1` [Example T57, 2-(4-chloro-3-(6-(1-methylcyclopropoxy)-9-((4-methylpyridin-2-yl)methyl)-9H-purin-8-yl)phenyl)acetamide] here?
Answer: > 10000 nM

Question: With `Cc1cc(Cn2c(-c3ccc(CC(N)=O)cc3Cl)nc3c(OC4(C)CC4)ncnc32)ccn1` [Example T58, 2-(3-chloro-4-(6-(1-methylcyclopropoxy)-9-((2-methylpyridin-4-yl)methyl)-9H-purin-8-yl)phenyl)acetamide] as the molecule, how does the IC50 read?
Answer: > 10000 nM

Question: How did the IC50 turn out when `Cc1cccc(Cn2c(-c3ccc(CC(N)=O)cc3Cl)nc3c(OC4(C)CC4)ncnc32)n1` [Example T59, 2-(3-chloro-4-(6-(1-methylcyclopropoxy)-9-((6-methylpyridin-2-yl)methyl)-9H-purin-8-yl)phenyl)acetamide] was run?
Answer: 2510 nM

Question: How did the IC50 turn out when `Cc1ncccc1Cn1c(-c2ccc(CC(N)=O)cc2Cl)nc2c(OC3(C)CC3)ncnc21` [Example T60, 2-(3-chloro-4-(6-(1-methylcyclopropoxy)-9-((2-methylpyridin-3-yl)methyl)-9H-purin-8-yl)phenyl)acetamide] was run?
Answer: 10000 nM

Question: With `Cc1ccnc(Cn2c(-c3ccc(OCC(N)=O)cc3Cl)nc3c(OC4(C)CC4)ncnc32)c1` [Example T61, 2-(3-chloro-4-(6-(1-methylcyclopropoxy)-9-((4-methylpyridin-2-yl)methyl)-9H-purin-8-yl)phenoxy)acetamide] as the molecule, how does the IC50 read?
Answer: 251 nM

Question: How did the IC50 turn out when `COC(=O)Nc1ccc(-c2nc3c(OC4(C)CC4)ncnc3n2Cc2cc(C)ccn2)c(Cl)c1` [Example T62, methyl (3-chloro-4-(6-(1-methylcyclopropoxy)-9-((4-methylpyridin-2-yl)methyl)-9H-purin-8-yl)phenyl)carbamate] was run?
Answer: 251 nM

Question: With `COc1ccnc(Cn2c(-c3ccc(CC(N)=O)cc3Cl)nc3c(OC4(C)CC4)ncnc32)c1` [Example T63, 2-(3-chloro-4-(9-((4-methoxypyridin-2-yl)methyl)-6-(1-methylcyclopropoxy)-9H-purin-8-yl)phenyl)acetamide] as the molecule, how does the IC50 read?
Answer: 1000 nM

Question: How did the IC50 turn out when `Cc1ccnc(Cn2c(-c3ccc(CCO)cc3Cl)nc3c(OC4(C)CC4)ncnc32)c1` [Example T65, 2-(3-chloro-4-(6-(1-methylcyclopropoxy)-9-((4-methylpyridin-2-yl)methyl)-9H-purin-8-yl)phenyl)ethan-1-ol] was run?
Answer: 251 nM

Question: `CNC(=O)Nc1ccc(-c2nc3c(OC4(C)CC4)ncnc3n2Cc2cc(C)ccn2)c(Cl)c1` [Example T66, 1-(3-chloro-4-(6-(1-methylcyclopropoxy)-9-((4-methylpyridin-2-yl)methyl)-9H-purin-8-yl)phenyl)-3-methylurea] was tested. Which IC50 did it give?
Answer: 398 nM

Question: `CC1(Oc2ncnc3c2nc(-c2ccc(CC(N)=O)cc2Cl)n3Cc2noc(C(C)(C)C)n2)CC1` [Example T71, 2-(4-(9-((5-(tert-butyl)-1,2,4-oxadiazol-3-yl)methyl)-6-(1-methylcyclopropoxy)-9H-purin-8-yl)-3-chlorophenyl)acetamide] was tested. Which IC50 did it give?
Answer: 7940 nM

Question: Which IC50 does the source give for `CC1(Oc2ncnc3c2nc(-c2ccc(CC(N)=O)cc2Cl)n3Cc2cc(C#N)ccc2F)CC1` [Example T77, 2-(3-chloro-4-(9-(5-cyano-2-fluorobenzyl)-6-(1-methylcyclopropoxy)-9H-purin-8-yl)phenyl)acetamide] here?
Answer: 158 nM

Question: How did the IC50 turn out when `CC1(Oc2ncnc3c2nc(-c2ccc(CC(N)=O)cc2Cl)n3Cc2ccc(F)cc2C#N)CC1` [Example T78, 2-(3-chloro-4-(9-(2-cyano-4-fluorobenzyl)-6-(1-methylcyclopropoxy)-9H-purin-8-yl)phenyl)acetamide] was run?
Answer: 5010 nM

Question: `CC1(Oc2ncnc3c2nc(-c2ccc(CC(N)=O)cc2Cl)n3Cc2cc(F)ccc2C#N)CC1` [Example T79, 2-(3-chloro-4-(9-(2-cyano-5-fluorobenzyl)-6-(1-methylcyclopropoxy)-9H-purin-8-yl)phenyl)acetamide] was tested. Which IC50 did it give?
Answer: 158 nM

Question: With `CC1(Oc2ncnc3c2nc(-c2ccc(CC(N)=O)cc2Cl)n3Cc2cccc(C#N)c2)CC1` [Example T81, 2-(3-chloro-4-(9-(3-cyanobenzyl)-6-(1-methylcyclopropoxy)-9H-purin-8-yl)phenyl)acetamide] as the molecule, how does the IC50 read?
Answer: 200 nM

Question: `CC1(Oc2ncnc3c2nc(-c2ccc(CC(N)=O)cc2Cl)n3Cc2ccccc2C#N)CC1` [Example T82, 2-(3-chloro-4-(9-(2-cyanobenzyl)-6-(1-methylcyclopropoxy)-9H-purin-8-yl)phenyl)acetamide] was tested. Which IC50 did it give?
Answer: 316 nM

Question: How did the IC50 turn out when `CC1(Oc2ncnc3c2nc(-c2ccc(CC(N)=O)cc2Cl)n3Cc2ccc(C#N)cc2)CC1` [Example T83, 2-(3-chloro-4-(9-(4-cyanobenzyl)-6-(1-methylcyclopropoxy)-9H-purin-8-yl)phenyl)acetamide] was run?
Answer: 7940 nM

Question: Which IC50 does the source give for `CC1(Oc2ncnc3c2nc(-c2ccc(OCCC(=O)O)cc2Cl)n3Cc2ccc(Cl)c(Cl)c2)CC1` [Example T84, 3-(3-chloro-4-(9-(3,4-dichlorobenzyl)-6-(1-methylcyclopropoxy)-9H-purin-8-yl)phenoxy)propanoic acid] here?
Answer: 2000 nM

Question: How did the IC50 turn out when `Cc1ccnc(Cn2c(-c3ccc(C(=O)NCC(F)(F)F)cc3Cl)nc3c(OC4(C)CC4)ncnc32)c1` [Example T86, 3-chloro-4-(6-(1-methylcyclopropoxy)-9-((4-methylpyridin-2-yl)methyl)-9H-purin-8-yl)-N-(2,2,2-trifluoroethyl)benzamide] was run?
Answer: 501 nM

Question: For `CC1(Oc2ncnc3c2nc(-c2ccc(OCCC(=O)O)cc2Cl)n3Cc2ccccc2Cl)CC1` [Example T88, 3-(3-chloro-4-(9-(2-chlorobenzyl)-6-(1-methylcyclopropoxy)-9H-purin-8-yl)phenoxy)propanoic acid], which IC50 is on record?
Answer: 794 nM

Question: Which IC50 does the source give for `C[C@H](Oc1cccc(-c2nc3c(OC4(C)CC4)ncnc3n2Cc2cccc(Cl)c2)c1Cl)C(=O)O` [Example T90, (S)-2-(2-chloro-3-(9-(3-chlorobenzyl)-6-(1-methylcyclopropoxy)-9H-purin-8-yl)phenoxy)propanoic acid] here?
Answer: 2000 nM

Reference: patent publication US20250195530A1, “POLQ INHIBITORS” (ASTRAZENECA AB, priority 2022, published 2025)
